Data published in patent publication US20260184707A1, “PHARMACEUTICAL COMPOUNDS FOR THE TREATMENT OF COMPLEMENT MEDIATED DISORDERS” (ALEXION PHARMACEUTICALS, INC., priority 2022, published 2026).

target: T1, Human complement C1s enzyme (Homo sapiens, UniProt P09871); assay: Human C1s enzyme assay; format: biochemical; settings: human complement C1s enzyme 1.16 nM, substrate Z-L-Lys-SBzl, A405; read-out: IC50 (Stars)
T1 construct: purified from human serum, Complement Technology, Inc; purchased Complement Technology, Inc; host or cells: human serum (plasma-derived native protein)
T1 sequence (P09871 438-688 limits assumed): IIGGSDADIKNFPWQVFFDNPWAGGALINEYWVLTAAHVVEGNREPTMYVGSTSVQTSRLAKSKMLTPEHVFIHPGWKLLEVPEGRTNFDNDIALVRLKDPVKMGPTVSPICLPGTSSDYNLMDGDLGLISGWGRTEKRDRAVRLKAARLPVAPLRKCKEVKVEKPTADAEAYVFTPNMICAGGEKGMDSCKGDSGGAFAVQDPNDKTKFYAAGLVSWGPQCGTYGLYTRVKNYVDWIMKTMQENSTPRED
T1 sequence (P09871 16-437 partner limits assumed): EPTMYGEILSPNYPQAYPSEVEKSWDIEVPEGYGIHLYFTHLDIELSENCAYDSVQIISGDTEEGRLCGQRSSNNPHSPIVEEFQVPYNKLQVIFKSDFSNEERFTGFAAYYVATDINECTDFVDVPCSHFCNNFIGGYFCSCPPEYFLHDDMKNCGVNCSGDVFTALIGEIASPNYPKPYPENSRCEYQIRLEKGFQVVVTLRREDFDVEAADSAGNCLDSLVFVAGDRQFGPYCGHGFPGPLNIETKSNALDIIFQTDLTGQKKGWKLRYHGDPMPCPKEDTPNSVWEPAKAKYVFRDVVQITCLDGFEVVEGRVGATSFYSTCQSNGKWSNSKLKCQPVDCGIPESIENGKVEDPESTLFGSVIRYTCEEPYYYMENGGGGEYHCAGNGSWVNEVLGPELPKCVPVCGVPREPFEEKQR
In short: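 Serum-purified human C1s (1.16 nM final) preincubated 5 min at room temperature with compound in 50 mM Tris, 1 M NaCl, pH 7.5. Z-L-Lys-SBzl and DTNB added at 100 μM each; A405 recorded every 30 s. IC50 from nonlinear regression of reaction rates versus compound concentration.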

Compound	IC50
O=C(Cn1c(-c2ccccc2)ncc(NCc2cc(-c3ccccc3F)on2)c1=O)NCc1cc2cnccc2[nH]1 [Compound 456, N-((1H-pyrrolo[3,2-c]pyridin-2-yl)methyl)-2-(5-(((5-(2-fluorophenyl)isoxazol-3-yl)-methyl)amino)-6-oxo-2-phen-ylpyrimidin-1(6H)-yl)acet-amide]	< 100 nM
C[C@H](Nc1ncc(-c2ccccc2)n(CC(=O)NCc2cc3cnccc3[nH]2)c1=O)c1ccc2oc3ccccc3c2c1 [Compound 282, (S)—N-((1H-pyrrolo[3,2-c]pyridine-2-yl)methyl)-2-(3-((1-(dibenzo[b,d]furan-2-yl)ethyl)amino)-2-oxo-6-phenylpyrazin-1(2H)-yl)acetamide]	< 100 nM
O=C(Cn1c(N2CCOCC2)ncc(NC(=O)c2csc(-c3ccccc3)n2)c1=O)NCc1cc2cnccc2[nH]1 [Compound 411, N-(1-(2-(((1H-pyrrolo[3,2-c]pyridin-2-yl)methyl)amino)-2-oxoethyl)-2-morpholino-6-oxo-1,6-dihydropyrimidin-5-yl)-2-phenylthiazole-4-carbox-amide]	< 100 nM
O=C(Cn1c(-c2ccccc2)ncc(NC(=O)c2ccc(Oc3ccccc3)s2)c1=O)NCc1cc2cnccc2[nH]1 [Compound 215, N-(1-(2-(((1H-pyrrolo[3,2-c]pyridine-2-yl)methyl)amino)-2-oxoethyl)-6-oxo-2-phenyl-1,6-dihydropyrimidin-5-yl)-5-phenoxythiophene-2-carboxamide]	< 100 nM
C[C@@H](Nc1cnc(-c2ccccc2F)n(CC(=O)NCc2cc3cnccc3[nH]2)c1=O)c1cc2c(cc1F)oc1ccccc12 [Compound 396, (R)-N-((1H-pyrrolo[3,2-c]pyridin-2-yl)methyl)-2-(5-((1-(3-fluorodibenzo[b,d]furan-2-yl)ethyl)amino)-2-(2-fluoro-phenyl)-6-oxopyrimidin-1(6H)-yl)acetamide]	< 100 nM
O=C(Cn1c(-c2ccccc2)ncc(NC(=O)c2cccc(-c3ccccc3)c2)c1=O)NCc1cc2cnccc2[nH]1 [Compound 165, N-(1-(2-(((1H-pyrrolo[3,2-c]pyridin-2-yl)methyl)amino)-2-oxoethyl)-6-oxo-2-phenyl-1,6-dihydropyrimidin-5-yl)-[1,1′-biphenyl]-3-carboxamide]	< 100 nM
Cc1cccc(-c2ncc(NCCCc3ccccc3)c(=O)n2CC(=O)NCc2cc3cnccc3[nH]2)c1F [Compound 435, N-((1H-pyrrolo[3,2-c]pyridin-2-yl)methyl)-2-(2-(2-fluoro-3-methylphenyl)-6-oxo-5-((3-phenylpropyl)amino)pyrimi-din-1(6H)-yl)acetamide]	< 100 nM
O=C(Cn1c(-c2ccccc2)ncc(NC(=O)c2ncc(-c3ccccc3)[nH]2)c1=O)NCc1cc2cnccc2[nH]1 [Compound 169, N-(1-(2-(((1H-pyrrolo[3,2-c]pyridin-2-yl)methyl)amino)-2-oxoethyl)-6-oxo-2-phenyl-1,6-dihydropyrimidin-5-yl)-5-phen-yl-1H-imidazole-2-carbox-amide]	< 100 nM
O=C(Cn1c(-c2ccc(OC3COC3)cc2)ncc(NCCCc2ccccc2)c1=O)NCc1cc2cnccc2[nH]1 [Compound 86, N-((1H-pyrrolo[3,2-c]pyridine-2-yl)methyl)-2-(2-(4-(oxetan-3-yloxy)phenyl)-6-oxo-5-((3-phenylpropyl)amino)pyrimidin-1(6H)-yl)acetamide]	< 100 nM
O=C(Cn1c(-c2ccccc2)ncc(NC(=O)Cc2ccccc2)c1=O)NCc1cc2cnccc2[nH]1 [Compound 24, N-((1H-pyrrolo[3,2-c]pyridin-2-yl)methyl)-2-(6-oxo-2-phen-yl-5-(2-phenylacetamido)pyr-imidin-1(6H)-yl)acetamide]	< 100 nM
O=C(Cn1c(-c2ccc(OCc3ccccn3)cc2)ncc(NC(=O)c2ccc(-c3ccccc3)cc2)c1=O)NCc1cc2cnccc2[nH]1 [Compound 225, N-[6-Oxo-1-[2-oxo-2-(1H-pyrrolo[3,2-c]pyridine-2-ylmethylamino)ethyl]-2-[4-(2-pyridylmethoxy)phenyl]pyrimidin-5-yl]-4-phenyl-benzamide]	< 100 nM

Continued, values first:

IC50	Compound
< 100 nM	O=C(Cn1c(N2CCCCC2)cnc(NCc2cc(-c3ccccc3F)on2)c1=O)NCc1cc2cnccc2[nH]1 [Compound 479, N-((1H-pyrrolo[3,2-c]pyridin-2-yl)methyl)-2-(3-(((5-(2-fluorophenyl)isoxazol-3-yl)-methyl)amino)-2-oxo-6-(piper-idin-1-yl)pyrazin-1(2H)-yl)-acetamide]
> 1000 nM	O=C(Cn1c(-c2ccccc2)cnc(NCCCc2ccccc2)c1=O)N[C@@H](CO)c1cc2cnccc2[nH]1 [Compound 14, (R)-N-(2-hydroxy-1-(1H-pyr-rolo[3,2-c]pyridin-2-yl)ethyl)-2-(2-oxo-6-phenyl-3-((3-phen-ylpropyl)amino)pyrazin-1(2H)-yl)acetamide]
< 100 nM	C[C@@H](Nc1ncc(-c2cscn2)n(CC(=O)NCc2cc3cnccc3[nH]2)c1=O)c1ccc2oc3ccccc3c2c1 [Compound 429, (R)-N-((1H-pyrrolo[3,2-c]pyridin-2-yl)methyl)-2-(3-((1-(dibenzo[b,d]furan-2-yl)ethyl)-amino)-2-oxo-6-(thiazol-4-yl)-pyrazin-1(2H)-yl)acetamide]
< 100 nM	O=C(Cn1c(-c2ccccc2)ncc(NCCCCc2ccc(Oc3ccccc3)cc2)c1=O)NCc1cc2cnccc2[nH]1 [Compound 21, N-((1H-pyrrolo[3,2-c]pyridin-2-yl)methyl)-2-(6-oxo-5-((4-(4-phenoxyphenyl)butyl)amino)-2-phenylpyrimidin-1(6H)-yl)acetamide]
< 100 nM	O=C(Cn1c(-c2ccc(F)cc2)ncc(NCc2ccc3oc4ccccc4c3c2)c1=O)NCc1cc2cnccc2[nH]1 [Compound 123, N-((1H-pyrrolo[3,2-c]pyridine-2-yl)methyl)-2-(5-((dibenzo[b,d]furan-2-ylmethyl)amino)-2-(4-fluorophenyl)-6-oxopyrimidin-1(6H)-yl)acetamide]
< 100 nM	O=C(Cn1c(C2CC2)ncc(NCc2ccc3oc4ccccc4c3c2)c1=O)NCc1cc2cnccc2[nH]1 [Compound 330, N-((1H-pyrrolo[3,2-c]pyridin-2-yl)methyl)-2-(2-cyclopropyl-5-((dibenzo[b,d]furan-2-yl-methyl)amino)-6-oxopyrimi-din-1(6H)-yl)acetamide]
< 100 nM	O=C(Cn1c(-c2ccccc2)ncc(NCc2ccc(Oc3ccccc3)cc2)c1=O)NCc1cc2cnccc2[nH]1 [Compound 20, N-((1H-pyrrolo[3,2-c]pyridin-2-yl)methyl)-2-(6-oxo-5-((4-phenoxybenzyl)amino)-2-phenylpyrimidin-1(6H)-yl)-acetamide]
< 100 nM	C[C@@H](Nc1cnc(-c2ccccn2)n(CC(=O)NCc2cc3cnccc3[nH]2)c1=O)c1ccc(-c2ccccc2F)cc1 [Compound 447, (R)-N-((1H-pyrrolo[3,2-c]pyridin-2-yl)methyl)-2-(5-((1-(2′-fluoro-[1,1′-biphenyl]-4-yl)ethyl)amino)-6-oxo-2-(pyridin-2-yl)pyrimidin-1(6H)-yl)acetamide]
< 100 nM	O=C(Cn1c(-c2ccccc2)ncc(NC(=O)c2ccc(Oc3ccc(F)cc3F)cc2)c1=O)NCc1cc2cnccc2[nH]1 [Compound 55, N-(1-(2-(((1H-pyrrolo[3,2-c]pyridin-2-yl)methyl)amino)-2-oxoethyl)-6-oxo-2-phenyl-1,6-dihydropyrimidin-5-yl)-4-(2,4-difluorophenoxy)benzamide]
< 100 nM	O=C(Cn1c(-c2ccccc2)ncc(NCCCc2ccc(F)cc2)c1=O)NCc1cc2cnccc2[nH]1 [Compound 46, N-((1H-pyrrolo[3,2-c]pyridin-2-yl)methyl)-2-(5-((3-(4-fluorophenyl)propyl)amino)-6-oxo-2-phenylpyrimidin-1(6H)-yl)acetamide]
100 to 1000 nM	C[C@@H](Nc1cnc(N2CCC(F)(F)C2)n(CC(=O)NCc2cc3cnccc3[nH]2)c1=O)c1ccc2oc3ccccc3c2c1 [Compound 401, (R)-N-((1H-pyrrolo[3,2-c]pyridin-2-yl)methyl)-2-(5-((1-(dibenzo[b,d]furan-2-yl)ethyl)-amino)-2-(3,3-difluoropyrroli-din-1-yl)-6-oxopyrimidin-1(6H)-yl)acetamide]
< 100 nM	O=C(Cn1c(-c2ccccc2)ncc(NC(=O)c2cccc(-c3ccco3)c2)c1=O)NCc1cc2cnccc2[nH]1 [Compound 102, N-(1-(2-(((1H-pyrrolo[3,2-c]pyridin-2-yl)methyl)amino)-2-oxoethyl)-6-oxo-2-phenyl-1,6-dihydropyrimidin-5-yl)-3-(furan-2-yl)benzamide]
100 to 1000 nM	C[C@@H](Nc1cnc(N2CCC(O)CC2)n(CC(=O)NCc2cc3cnccc3[nH]2)c1=O)c1ccc2oc3ccccc3c2c1 [Compound 380, (R)-N-((1H-pyrrolo[3,2-c]pyridin-2-yl)methyl)-2-(5-((1-(dibenzo[b,d]furan-2-yl)ethyl)-amino)-2-(4-hydroxypiperidin-1-yl)-6-oxopyrimidin-1(6H)-yl)acetamide]
